biological target: T1, CCR2 (Homo sapiens, UniProt P41597); assay: CCR2 activity in one of the chemotaxis, binding or calcium mobilization assays; format: cell-based; settings: assay not specified per compound
T1 construct: CCR2 expressing THP-1 cells were centrifuged and resuspended in assay buffer; host or cells: THP-1
T1 sequence (P41597 1-360 isoform P41597-2): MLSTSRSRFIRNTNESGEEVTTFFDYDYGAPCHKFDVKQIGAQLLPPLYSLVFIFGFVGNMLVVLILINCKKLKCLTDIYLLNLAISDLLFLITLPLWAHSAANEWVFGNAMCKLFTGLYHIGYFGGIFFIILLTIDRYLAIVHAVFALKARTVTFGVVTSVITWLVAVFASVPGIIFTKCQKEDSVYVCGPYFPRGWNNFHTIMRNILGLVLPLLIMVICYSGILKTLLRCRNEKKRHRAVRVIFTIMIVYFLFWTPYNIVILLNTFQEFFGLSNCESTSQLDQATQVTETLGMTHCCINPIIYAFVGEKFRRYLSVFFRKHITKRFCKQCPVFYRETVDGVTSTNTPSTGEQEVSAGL
Description: Conventional migration assay was used to determine the efficacy of potential receptor antagonists in blocking migration mediated through chemokines (such as CCR2 or CCR9). This assay was routinely performed using the ChemoTX® microchamber system with a 5-μm pore-sized polycarbonate membrane. To begin such an assay, chemokine expressing cells (such as THP-1 cells for CCR2 assay or MOLT-4 cells for CCR9 assay) were harvested by centrifugation of cell suspension at 1000 RPM on a GS-6R Beckman centrifuge. The cell pellet was resuspended in chemotaxis buffer (HBSS with 0.1% BSA) at 10×10^6 cells/mL for CCR2 assay (5×10^6 cells/mL for CCR9 assay). Test compounds at desired concentrations were prepared from 10 mM stock solutions by serial dilutions in chemotaxis buffer. An equal volume of cells and compounds were mixed and incubated at room temperature for 15 minutes. Afterwards, 20 μL of the mixture was transferred onto the porous membrane of a migration microchamber, with 29 μL of chemokine ligand (0.1 nM chemokine MCP-1 protein for CCR2 assay or […] chemokine TECK protein for CCR9 assay) placed at the lower chamber. Following an incubation at 37° C. (90-minute for CCR2; 150-minute for CCR9), during which cells migrated against the chemokine gradient, the assay was terminated by removing the cell drops from atop the filter. To quantify cells migrated across the membrane, 5 μL of 7×CyQUANT® solution was added to each well in the lower chamber, and the fluorescence signal measured on a Spectrafluor Plus fluorescence plate reader (TECAN, Durham, N.C.). The degree of inhibition was determined by comparing migration signals between compound-treated and untreated cells. IC50 calculation was further performed by non-linear squares regression analysis using Graphpad Prism (Graphpad Software, San Diego, Calif.).
Calcium flux assay measures an increase in intracellular calcium following ligand-induced receptor activation. In the screen of chemokine antagonists, it was used as a secondary assay carried out on a FLIPR® machine (Molecular Devices, Mountain View, Calif.). To begin an assay, chemokine expressing cells (such as THP-1 cells for CCR2 assay or MOLT-4 cells for CCR9 assay) were harvested by centrifugation of cell suspension, and resuspended to 1.5×10^6 cells/mL in HBSS (with 1% fetal calf serum). Cells were then labeled with a calcium indicator dye Fluo-4 AM for 45 minutes at 37° C. with gentle shaking. Following incubation, cells were pelletted, washed once with HBSS and resuspended in the same buffer at a density of 1.6×10^6 cells/mL. One hundred microliters of labeled cells were mixed with 10 μL of test compound at the appropriate concentrations on an assay plate. Chemokine protein (MCP-1 at a final concentration of 0.1 nM for CCR2 assay or TECK at a final concentration of 25 nM for CCR9 assay) to activate the receptor. The degree of inhibition was determined by comparing calcium signals between compound-treated and untreated cells. IC50 calculations were further performed by non-linear squares regression analysis using Graphpad Prism (Graphpad Software, San Diego, Calif.).
Ligand binding assay was used to determine the ability of potential CCR2 antagonists to block the interaction between CCR2 and its ligand MCP-1. CCR2 expressing THP-1 cells were centrifuged and resuspended in assay buffer (20 mM HEPES pH 7.1, 140 mM NaCl, 1 mM CaCl2, 5 mM MgCl2, and with 0.2% bovine serum albumin) to a concentration of 2.2×10^5 cells/mL. Binding assays were set up as follows. […]

Structure (SMILES)	IC50 [nM]
O=S(=O)(Nc1cc(Cl)ccc1-c1nncn1-c1cc[nH]n1)c1ccc(Cl)c(C(F)(F)F)c1 [Compound 157]	< 1000
Cc1nnc(-c2ccc(Cl)cc2NS(=O)(=O)c2ccc(Cl)c(C(F)(F)F)c2)n1-c1cc[nH]n1 [Compound 158]	< 1000
O=S(=O)(Nc1cc(Cl)ccc1-c1nncn1-c1ccccc1)c1ccc(Cl)c(C(F)(F)F)c1 [Compound 159, 4-chloro-N-(5-chloro-2-(4-phenyl-4H-1,2,4-triazol-3-yl)phenyl)-3-(trifluoromethyl)benzenesulfonamide]	< 1000
O=S(=O)(Nc1cc(Cl)c(F)cc1-c1nncn1-c1cc[nH]n1)c1ccc(Cl)c(C(F)(F)F)c1 [Compound 160, N-(2-(4-(1H-pyrazol-3-yl)-4H-1,2,4-triazol-3-yl)-5-chloro-4-fluorophenyl)-4-chloro-3-(trifluoromethyl)benzenesulfonamide]	< 1000

biological target: T2, CCR9 (Homo sapiens, UniProt P51686); assay: CCR9 activity in one of the chemotaxis, binding or calcium mobilization assays; format: cell-based; settings: assay not specified per compound
T2 construct: chemokine expressing cells (such as THP-1 cells for CCR2 assay or MOLT-4 cells for CCR9 assay); host or cells: MOLT-4
T2 sequence (P51686 1-369): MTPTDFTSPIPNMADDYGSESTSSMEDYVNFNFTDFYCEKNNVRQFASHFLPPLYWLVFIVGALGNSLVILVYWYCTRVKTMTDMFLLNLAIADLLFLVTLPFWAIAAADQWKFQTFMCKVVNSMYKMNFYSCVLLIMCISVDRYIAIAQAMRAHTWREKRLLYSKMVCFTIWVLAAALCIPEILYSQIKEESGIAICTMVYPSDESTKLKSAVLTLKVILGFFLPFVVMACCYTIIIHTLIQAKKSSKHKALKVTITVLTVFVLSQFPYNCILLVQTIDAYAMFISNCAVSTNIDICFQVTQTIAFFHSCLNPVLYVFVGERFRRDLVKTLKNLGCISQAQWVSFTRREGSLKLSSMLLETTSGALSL
Procedure, shortened: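 Chemotaxis: THP-1 cells (CCR2, 0.1 nM MCP-1, 90 min) or MOLT-4 cells (CCR9, 50 nM TECK, 150 min) preincubated with compound 15 min RT, migration at 37 °C through 5-μm membrane, CyQUANT read; IC50 by nonlinear regression. Calcium flux: Fluo-4-loaded cells, 0.1 nM MCP-1 or 25 nM TECK. Binding: THP-1, ~50 pM [125I]MCP-1, 3 h, 4 °C.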

Structure (SMILES)	IC50 [nM]
CNCc1nnc(-c2cc(Cl)ccc2NS(=O)(=O)c2ccc(C(C)(C)C)cc2)n1C [Compound 132, 4-tert-butyl-N-(4-chloro-2-(4-methyl-5-((methylamino)methyl)-4H-1,2,4-triazol-3-yl)phenyl)benzenesulfonamide]	< 1000
CCc1nnc(-c2cc(C(=O)OC)ccc2NS(=O)(=O)c2ccc(C(C)(C)C)cc2)n1C [Compound 133, methyl 4-(4-tert-butylphenylsulfonamido)-3-(5-ethyl-4-methyl-4H-1,2,4-triazol-3-yl)benzoate]	< 1000
CC(C)Oc1ccc(S(=O)(=O)Nc2ccc(Cl)cc2-c2nncn2[C@H]2CCNC2)cc1 [Compound 134, (S)—N-(4-chloro-2-(4-(pyrrolidin-3-yl)-4H-1,2,4-triazol-3-yl)phenyl)-4-isopropoxybenzenesulfonamide]	< 1000
Cc1nnc(-c2cc(Cl)ccc2NS(=O)(=O)c2ccc(N3CCOCC3)c(F)c2)n1C [Compound 135, N-(4-chloro-2-(4,5-dimethyl-4H-1,2,4-triazol-3-yl)phenyl)-3-fluoro-4-morpholinobenzenesulfonamide]	< 1000
COCCn1cnnc1-c1cc(Cl)c(F)cc1NS(=O)(=O)c1ccc(C(C)(C)C)cc1 [Compound 136, 4-tert-butyl-N-(4-chloro-5-fluoro-2-(4-(2-methoxyethyl)-4H-1,2,4-triazol-3-yl)phenyl)benzenesulfonamide]	< 1000
Cn1c(CCO)nnc1-c1cc(Cl)c(F)cc1NS(=O)(=O)c1ccc(C(C)(C)C)cc1 [Compound 137, 4-tert-butyl-N-(4-chloro-5-fluoro-2-(5-(2-hydroxyethyl)-4-methyl-4H-1,2,4-triazol-3-yl)phenyl)benzenesulfonamide]	< 1000
CC(C)NCc1nnc(-c2cc(Cl)ccc2NS(=O)(=O)c2ccc(C(C)(C)C)cc2)n1C [Compound 138, 4-tert-butyl-N-(4-chloro-2-(5-((isopropylamino)methyl)-4-methyl-4H-1,2,4-triazol-3-yl)phenyl)benzenesulfonamide]	< 1000
CO[C@@H](C)c1nnc(-c2cc(Cl)c(F)cc2NS(=O)(=O)c2ccc(C(C)(C)C)cc2)n1C [Compound 139]	< 1000
Cn1c(-c2cc(Cl)c(F)cc2NS(=O)(=O)c2ccc(C(C)(C)C)cc2)nnc1[C@H]1CCCN1 [Compound 140]	< 1000
CC(C)N1CC[C@H](n2cnnc2-c2cc(Cl)ccc2NS(=O)(=O)c2ccc(C(C)(C)C)cc2)C1 [Compound 141]	< 1000
CC1(c2ccc(S(=O)(=O)Nc3ccc(Cl)cc3-c3nncn3[C@H]3CCNC3)cc2)CCOCC1 [Compound 142, (S)—N-(4-chloro-2-(4-(pyrrolidin-3-yl)-4H-1,2,4-triazol-3-yl)phenyl)-4-(4-methyltetrahydro-2H-pyran-4-yl)benzenesulfonamide]	< 1000
CC(C)(C)c1ccc(S(=O)(=O)Nc2ccc(Cl)cc2-c2nncn2[C@H]2CCN(C(N)=O)C2)cc1 [Compound 143]	< 1000
Cn1c(CN2CCOCC2)nnc1-c1cc(Cl)ccc1NS(=O)(=O)c1ccc(C(C)(C)C)cc1 [Compound 144]	< 1000
Cn1c(-c2cc(Cl)c(F)cc2NS(=O)(=O)c2ccc(C(C)(C)C)cc2)nnc1C1CCCNC1 (centres unmarked) [Compound 145]	< 1000
CC(C)c1nnc(-c2cc(Cl)c(F)cc2NS(=O)(=O)c2ccc(C(C)(C)C)cc2)n1[C@H]1CCNC1 [Compound 146]	< 1000
Cn1c(CN2CCNCC2)nnc1-c1cc(Cl)c(F)cc1NS(=O)(=O)c1ccc(C(C)(C)C)cc1 [Compound 147]	< 1000
Cn1c(CN[C@H]2CCOC2)nnc1-c1cc(Cl)c(F)cc1NS(=O)(=O)c1ccc(C(C)(C)C)cc1 [Compound 148]	< 1000
COCCN(C)Cc1nnc(-c2cc(Cl)c(F)cc2NS(=O)(=O)c2ccc(C(C)(C)C)cc2)n1C [Compound 149, 4-tert-butyl-N-(4-chloro-5-fluoro-2-(5-(((2-methoxyethyl)(methyl)amino)methyl)-4-methyl-4H-1,2,4-triazol-3-yl)phenyl)benzenesulfonamide]	< 1000
CC(C)n1c(-c2cc(Cl)ccc2NS(=O)(=O)c2ccc(C(C)(C)C)cc2)nnc1C1(C)CCOCC1 [Compound 150]	< 1000
CN1CCN(Cc2nnc(-c3cc(Cl)c(F)cc3NS(=O)(=O)c3ccc(C(C)(C)C)cc3)n2C)CC1 [Compound 151]	< 1000
Cn1c(CNC2CCOCC2)nnc1-c1cc(Cl)c(F)cc1NS(=O)(=O)c1ccc(C(C)(C)C)cc1 [Compound 152]	< 1000
CC(C)(C)c1ccc(S(=O)(=O)Nc2ccc(Cl)cc2-c2nncn2[C@H]2CCN(S(C)(=O)=O)C2)cc1 [Compound 153]	< 1000
CC(C)n1c(CN2CCOCC2)nnc1-c1cc(Cl)c(F)cc1NS(=O)(=O)c1ccc(C(C)(C)C)cc1 [Compound 154]	< 1000
Cc1nnc(-c2cc(Cl)ccc2NS(=O)(=O)c2ccc(C(C)(C)C)cc2)n1C1CCN(C)CC1 [Compound 155]	< 1000
CC(C)(C)c1ccc(S(=O)(=O)Nc2ccc(Cl)cc2-c2nnc3ncccn23)cc1 [Compound 156, N-(2-([1,2,4]triazolo[4,3-a]pyrimidin-3-yl)-4-chlorophenyl)-4-tert-butylbenzenesulfonamide]	< 1000
